Source: patent US10131652B2, “Pyrimidinyloxy benzene derivatives as herbicides” (E. I. DU PONT DE NEMOURS AND COMPANY, priority 2014, dated 2018)
Where two headings read alike, the source gives them in different places.

Tests used:
Type in all cases: in vivo
wild oat (Avena fatua) = test: Test E pre-/postemergence plant response; conditions: scale 0 to 100, read-out: Plant response rating, Oat, Wild; for pest or weed control at 16 g/ha: 16 g ai/ha; for pest or weed control at 31 g/ha: 31 g ai/ha; for pest or weed control at 62 g/ha: 62 g ai/ha; for pest or weed control at 125 g/ha: 125 g ai/ha
How it was run: (§1)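 Visual scores on a 0–100 scale (100 = complete control) were assigned against untreated controls 7–21 days after treatment in a controlled environment. Compounds, formulated with solvent plus surfactant, were applied to pre-emergence silt-loam sowings or to 1- to 4-leaf plants (2–18 cm) in potting medium.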

[1] = tested on: speedwell (bird's-eye speedwell, Veronica persica); test: Test E pre-/postemergence plant response; conditions: scale 0 to 100, read-out: Plant response rating, Speedwell; for pest or weed control at 16 g/ha: 16 g ai/ha; for pest or weed control at 62 g/ha: 62 g ai/ha; for pest or weed control at 125 g/ha: 125 g ai/ha
How it was run: as §1

[2] = tested on: field violet (Viola arvensis); test: Test E pre-/postemergence plant response; conditions: scale 0 to 100, read-out: Plant response rating, Field Violet; for pest or weed control at 16 g/ha: 16 g ai/ha; for pest or weed control at 31 g/ha: 31 g ai/ha; for pest or weed control at 62 g/ha: 62 g ai/ha; for pest or weed control at 125 g/ha: 125 g ai/ha
How it was run: as §1

[3] = tested on: oilseed rape (Brassica napus); test: Test E pre-/postemergence plant response; conditions: scale 0 to 100, read-out: Plant response rating, Oilseed Rape; for plant injury at 16 g/ha: 16 g ai/ha; for plant injury at 31 g/ha: 31 g ai/ha; for plant injury at 62 g/ha: 62 g ai/ha; for plant injury at 125 g/ha: 125 g ai/ha
How it was run: as §1

[4] = tested on: wild buckwheat (Polygonum convolvulus); test: Test E pre-/postemergence plant response; conditions: Fallopia convolvulus, scale 0 to 100, read-out: Plant response rating, Buckwheat, Wild; for pest or weed control at 16 g/ha: 16 g ai/ha; for pest or weed control at 31 g/ha: 31 g ai/ha; for pest or weed control at 62 g/ha: 62 g ai/ha; for pest or weed control at 125 g/ha: 125 g ai/ha
How it was run: as §1

[5] = tested on: green foxtail (Setaria viridis); test: Test E pre-/postemergence plant response; conditions: scale 0 to 100, read-out: Plant response rating, Foxtail, Green; for pest or weed control at 16 g/ha: 16 g ai/ha; for pest or weed control at 31 g/ha: 31 g ai/ha; for pest or weed control at 62 g/ha: 62 g ai/ha; for pest or weed control at 125 g/ha: 125 g ai/ha
How it was run: as §1

[6] = tested on: wild mustard (Sinapis arvensis); test: Test E pre-/postemergence plant response; conditions: Brassica, scale 0 to 100, read-out: Plant response rating, Mustard, Wild; for pest or weed control at 16 g/ha: 16 g ai/ha; for pest or weed control at 31 g/ha: 31 g ai/ha; for pest or weed control at 62 g/ha: 62 g ai/ha; for pest or weed control at 125 g/ha: 125 g ai/ha
How it was run: as §1

[7] = tested on: ducksalad (Heteranthera limosa); test: Test D flooded paddy test plant response; conditions: Flood (flooded paddy test), visual rating on scale 0 to 100 (0 no effect, 100 complete control), 13 to 15 days
How it was run: (§2)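 Plants at 2-leaf stage in pots flooded 3 cm above soil; compounds applied directly into paddy water, depth kept throughout. After 13-15 days in greenhouse, visual rating against controls on 0-100 scale (100 = complete control).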

rice (Oryza sativa) = test: Test D flooded paddy test plant response; conditions: Flood (flooded paddy test), visual rating on scale 0 to 100 (0 no effect, 100 complete control), 13 to 15 days
How it was run: as §2

[8] = tested on: barnyardgrass (Echinochloa crus-galli); test: Test D flooded paddy test plant response; conditions: Flood (flooded paddy test), visual rating on scale 0 to 100 (0 no effect, 100 complete control), 13 to 15 days
How it was run: as §2

[9] = tested on: small-flower umbrella sedge (Cyperus difformis); test: Test D flooded paddy test plant response; conditions: Flood (flooded paddy test), visual rating on scale 0 to 100 (0 no effect, 100 complete control), 13 to 15 days
How it was run: as §2

`Fc1cccc(Oc2ncc(Cl)cn2)c1-c1cc(C(F)F)on1` [Compound 55, 5-chloro-2-[2-[5-(difluoromethyl)-3-isoxazolyl]-3-fluorophenoxy]pyrimidine] was tested, and the pest or weed control at 16 g/ha (wild oat (Avena fatua); post-emergence, Postemergence) was 10%, the pest or weed control at 31 g/ha (wild oat (Avena fatua); post-emergence, Postemergence) was 15% and the pest or weed control at 62 g/ha (wild oat (Avena fatua); post-emergence, Postemergence) was 40%. For the same compound, the pest or weed control at 125 g/ha (wild oat (Avena fatua); post-emergence, Postemergence) was 50%, the pest or weed control at 16 g/ha (wild oat (Avena fatua); pre-emergence, Preemergence) was 0% and the pest or weed control at 31 g/ha (wild oat (Avena fatua); pre-emergence, Preemergence) was 15%. The pest or weed control at 62 g/ha (wild oat (Avena fatua); pre-emergence, Preemergence) was 35%, the pest or weed control at 125 g/ha (wild oat (Avena fatua); pre-emergence, Preemergence) was 45% and the pest or weed control at 16 g/ha ([1]; post-emergence, Postemergence) was 75%. For the same compound, the pest or weed control at 31 g/ha ([1]; post-emergence, 31 g ai/ha, Postemergence) was 80%, the pest or weed control at 62 g/ha ([1]; post-emergence, Postemergence) was 100% and the pest or weed control at 125 g/ha ([1]; post-emergence, Postemergence) was 100%. For the same compound, the pest or weed control at 16 g/ha ([1]; pre-emergence, Preemergence) was 100%, the pest or weed control at 62 g/ha ([1]; pre-emergence, Preemergence) was 100% and the pest or weed control at 125 g/ha ([1]; pre-emergence, Preemergence) was 100%. For the same compound, the pest or weed control at 16 g/ha ([2]; post-emergence, Postemergence) was 65%, the pest or weed control at 31 g/ha ([2]; post-emergence, Postemergence) was 70% and the pest or weed control at 62 g/ha ([2]; post-emergence, Postemergence) was 85%. For the same compound, the pest or weed control at 125 g/ha ([2]; post-emergence, Postemergence) was 90%, the pest or weed control at 16 g/ha ([2]; pre-emergence, Preemergence) was 70% and the pest or weed control at 31 g/ha ([2]; pre-emergence, Preemergence) was 80%. The pest or weed control at 62 g/ha ([2]; pre-emergence, Preemergence) was 100%, the pest or weed control at 125 g/ha ([2]; pre-emergence, Preemergence) was 100% and the plant injury at 16 g/ha ([3]; post-emergence, Postemergence) was 75%. The plant injury at 31 g/ha ([3]; post-emergence, Postemergence) was 75%, the plant injury at 62 g/ha ([3]; post-emergence, Postemergence) was 90% and the plant injury at 125 g/ha ([3]; post-emergence, Postemergence) was 95%. It also gave a plant injury at 16 g/ha ([3]; pre-emergence, Preemergence) of 20%, a plant injury at 31 g/ha ([3]; pre-emergence, Preemergence) of 100% and a plant injury at 62 g/ha ([3]; pre-emergence, Preemergence) of 100%. For the same compound, the plant injury at 125 g/ha ([3]; pre-emergence, Preemergence) was 100%, the pest or weed control at 16 g/ha ([4]; post-emergence, Postemergence) was 65% and the pest or weed control at 31 g/ha ([4]; post-emergence, Postemergence) was 95%. The pest or weed control at 62 g/ha ([4]; post-emergence, Postemergence) was 95%, the pest or weed control at 125 g/ha ([4]; post-emergence, Postemergence) was 95% and the pest or weed control at 16 g/ha ([4]; pre-emergence, Preemergence) was 65%. For the same compound, the pest or weed control at 31 g/ha ([4]; pre-emergence, Preemergence) was 100%, the pest or weed control at 62 g/ha ([4]; pre-emergence, Preemergence) was 100% and the pest or weed control at 125 g/ha ([4]; pre-emergence, Preemergence) was 100%. For the same compound, the pest or weed control at 16 g/ha ([5]; post-emergence, Postemergence) was 30%, the pest or weed control at 31 g/ha ([5]; post-emergence, Postemergence) was 45% and the pest or weed control at 62 g/ha ([5]; post-emergence, Postemergence) was 50%. The pest or weed control at 125 g/ha ([5]; post-emergence, Postemergence) was 60%, the pest or weed control at 16 g/ha ([5]; pre-emergence, Preemergence) was 10% and the pest or weed control at 31 g/ha ([5]; pre-emergence, Preemergence) was 25%. The pest or weed control at 62 g/ha ([5]; pre-emergence, Preemergence) was 100%, the pest or weed control at 125 g/ha ([5]; pre-emergence, Preemergence) was 100% and the pest or weed control at 16 g/ha ([6]; post-emergence, Postemergence) was 70%. For the same compound, the pest or weed control at 31 g/ha ([6]; post-emergence, Postemergence) was 85%, the pest or weed control at 62 g/ha ([6]; post-emergence, Postemergence) was 95% and the pest or weed control at 125 g/ha ([6]; post-emergence, Postemergence) was 95%. For the same compound, the pest or weed control at 16 g/ha ([6]; pre-emergence, Preemergence) was 80%, the pest or weed control at 31 g/ha ([6]; pre-emergence, Preemergence) was 100% and the pest or weed control at 62 g/ha ([6]; pre-emergence, Preemergence) was 100%. For the same compound, the pest or weed control at 125 g/ha ([6]; pre-emergence, Preemergence) was 100%, the “Plant response rating, Ducksalad” value ([7]; 31 g ai/ha) was 75 and the “Plant response rating, Ducksalad” value ([7]; 62 g ai/ha) was 80. The “Plant response rating, Ducksalad” value ([7]; 125 g ai/ha) was 85, the “Plant response rating, Ducksalad” value ([7]; 250 g ai/ha) was 90 and the “Plant response rating, Rice” value (rice (Oryza sativa); 31 g ai/ha) was 0. For the same compound, the “Plant response rating, Rice” value (rice (Oryza sativa); 62 g ai/ha) was 0, the “Plant response rating, Rice” value (rice (Oryza sativa); 125 g ai/ha) was 0 and the “Plant response rating, Rice” value (rice (Oryza sativa); 250 g ai/ha) was 0. For the same compound, the “Plant response rating, Barnyardgrass” value ([8]; 31 g ai/ha) was 0, the “Plant response rating, Barnyardgrass” value ([8]; 62 g ai/ha) was 0 and the “Plant response rating, Barnyardgrass” value ([8]; 125 g ai/ha) was 10. For the same compound, the “Plant response rating, Barnyardgrass” value ([8]; 250 g ai/ha) was 30, the “Plant response rating, Sedge, Umbrella” value ([9]; 31 g ai/ha) was 75 and the “Plant response rating, Sedge, Umbrella” value ([9]; 62 g ai/ha) was 75. The “Plant response rating, Sedge, Umbrella” value ([9]; 125 g ai/ha) was 85 and the “Plant response rating, Sedge, Umbrella” value ([9]; 250 g ai/ha) was 100.
